Here are results for 7 cell lines from the supplement of paper PMC10307832.

Holding throughout (assay): relative viability (nuclei count vs DMSO), 5 days (fraction); higher = more cells survive
Compound in the experiment “QS11 + OSI-027”: C1CC2=C(C1)C=C(C=C2)OC3=NC(=C4C(=N3)N(C=N4)CC5=CC=C(C=C5)C6=CC=CC=C6)N[C@@H](CC7=CC=CC=C7)CO [QS11] + COc1cccc2cc(-c3nc([C@H]4CC[C@H](C(=O)O)CC4)n4ncnc(N)c34)[nH]c12 [OSI-027] (partner 0.5 µM)
In short, it runs like this:
(§1)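 One day after seeding in 1536-well plates, lung cancer cell lines were dosed by pin tool. Dosing was either single-drug or a fixed anchor-drug dose plus five library-drug doses (not always all listed) in √10 steps. After 5 days, nuclei were stained in one fix-and-stain step and counted on 4× images, and relative viability is the nuclei count of treated wells over that of vehicle wells, given as the median of duplicate plates.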

Compound in the experiment “QS11 + Pemetrexed”: C1CC2=C(C1)C=C(C=C2)OC3=NC(=C4C(=N3)N(C=N4)CC5=CC=C(C=C5)C6=CC=CC=C6)N[C@@H](CC7=CC=CC=C7)CO [QS11] + Nc1nc2[nH]cc(CCc3ccc(C(=O)N[C@@H](CCC(=O)O)C(=O)O)cc3)c2c(=O)[nH]1 [Pemetrexed] (partner 0.2 µM)
In short, it runs like this: as §1

Compound in the experiment “QS11 + Vorinostat”: C1CC2=C(C1)C=C(C=C2)OC3=NC(=C4C(=N3)N(C=N4)CC5=CC=C(C=C5)C6=CC=CC=C6)N[C@@H](CC7=CC=CC=C7)CO [QS11] + O=C(CCCCCCC(=O)Nc1ccccc1)NO [Vorinostat] (partner 1 µM)
In short, it runs like this:
as §1

Compound in the experiment “AZ628 + Pictilisib”: CC1=C(C=C(C=C1)NC(=O)C2=CC(=CC=C2)C(C)(C)C#N)NC3=CC4=C(C=C3)N=CN(C4=O)C [AZ628] + CS(=O)(=O)N1CCN(Cc2cc3nc(-c4cccc5[nH]ncc45)nc(N4CCOCC4)c3s2)CC1 [Pictilisib] (partner 1 µM)
In short, it runs like this:
as §1

As to NCI-H2009, the relative viability with QS11 + OSI-027 (first compound 0.08 µM) came to 0.66; with QS11 + OSI-027 (first compound 0.253 µM), 0.639; in the experiment with QS11 + OSI-027 (first compound 0.8 µM), 0.53; in the experiment with QS11 + OSI-027 (first compound 2.53 µM), 0.448; with QS11 + OSI-027 (first compound 8 µM), 0.462; in the experiment with QS11 + Pemetrexed (first compound 0.08 µM), 1.08. Further, the relative viability with QS11 + Pemetrexed (first compound 0.253 µM) came to 1.06; with QS11 + Pemetrexed (first compound 0.8 µM) it was 1.01; in the experiment with QS11 + Pemetrexed (first compound 2.53 µM), 0.978; with QS11 + Pemetrexed (first compound 8 µM), 0.985; with QS11 + Vorinostat (first compound 0.08 µM) it was 0.757; with QS11 + Vorinostat (first compound 0.253 µM), 0.699. Moreover, the relative viability came out at 0.635 with QS11 + Vorinostat (first compound 0.8 µM); 0.707 in the experiment with QS11 + Vorinostat (first compound 2.53 µM); 0.603 in the experiment with QS11 + Vorinostat (first compound 8 µM); 0.512 with AZ628 + Pictilisib (first compound 0.08 µM); 0.311 in the experiment with AZ628 + Pictilisib (first compound 0.253 µM); 0.291 in the experiment with AZ628 + Pictilisib (first compound 0.8 µM). Besides, the relative viability with AZ628 + Pictilisib (first compound 2.53 µM) is 0.277; in the experiment with AZ628 + Pictilisib (first compound 8 µM), 0.226.

In the case of SK-LU-1, the relative viability was determined as 0.321 in the experiment with QS11 + OSI-027 (first compound 0.08 µM); 0.327 in the experiment with QS11 + OSI-027 (first compound 0.253 µM); 0.326 with QS11 + OSI-027 (first compound 0.8 µM); 0.254 in the experiment with QS11 + OSI-027 (first compound 2.53 µM); 0.291 with QS11 + OSI-027 (first compound 8 µM); 0.993 with QS11 + Pemetrexed (first compound 0.08 µM). In addition, the relative viability with QS11 + Pemetrexed (first compound 0.253 µM) turned out to be 1.07; with QS11 + Pemetrexed (first compound 0.8 µM) it was 0.913; in the experiment with QS11 + Pemetrexed (first compound 2.53 µM) it was 0.835; with QS11 + Pemetrexed (first compound 8 µM), 0.781; in the experiment with QS11 + Vorinostat (first compound 0.08 µM), 0.786; with QS11 + Vorinostat (first compound 0.253 µM), 0.849. In addition, the relative viability amounted to 0.604 in the experiment with QS11 + Vorinostat (first compound 0.8 µM); 0.572 with QS11 + Vorinostat (first compound 2.53 µM); 0.614 with QS11 + Vorinostat (first compound 8 µM); 0.429 with AZ628 + Pictilisib (first compound 0.08 µM); 0.375 with AZ628 + Pictilisib (first compound 0.253 µM); 0.534 with AZ628 + Pictilisib (first compound 0.8 µM). The figures for the relative viability in the experiment with AZ628 + Pictilisib (first compound 2.53 µM) and in the experiment with AZ628 + Pictilisib (first compound 8 µM) were 0.467 and 0.373, respectively.

For the cell line RERF-LC-KJ, the relative viability in the experiment with QS11 + OSI-027 (first compound 0.08 µM) was determined as 0.519; in the experiment with QS11 + OSI-027 (first compound 0.253 µM) it was 0.578; with QS11 + OSI-027 (first compound 0.8 µM), 0.543; in the experiment with QS11 + OSI-027 (first compound 2.53 µM) it was 0.448; with QS11 + OSI-027 (first compound 8 µM), 0.438; in the experiment with QS11 + Pemetrexed (first compound 0.08 µM) it was 0.51. Further, the relative viability with QS11 + Pemetrexed (first compound 0.253 µM) amounted to 0.461; in the experiment with QS11 + Pemetrexed (first compound 0.8 µM), 0.443; with QS11 + Pemetrexed (first compound 2.53 µM) it was 0.482; with QS11 + Pemetrexed (first compound 8 µM) it was 0.439; with QS11 + Vorinostat (first compound 0.08 µM) it was 0.643; with QS11 + Vorinostat (first compound 0.253 µM), 0.628. Further, the relative viability came out at 0.523 with QS11 + Vorinostat (first compound 0.8 µM); 0.664 with QS11 + Vorinostat (first compound 2.53 µM); 0.566 with QS11 + Vorinostat (first compound 8 µM); 0.573 in the experiment with AZ628 + Pictilisib (first compound 0.08 µM); 0.633 with AZ628 + Pictilisib (first compound 0.253 µM); 0.612 in the experiment with AZ628 + Pictilisib (first compound 0.8 µM). Moreover, the results for the relative viability with AZ628 + Pictilisib (first compound 2.53 µM) and in the experiment with AZ628 + Pictilisib (first compound 8 µM) were 0.513 and 0.487, respectively.

In the case of NCI-H322M, the relative viability worked out at 0.549 with QS11 + OSI-027 (first compound 0.08 µM); 0.607 with QS11 + OSI-027 (first compound 0.253 µM); 0.636 in the experiment with QS11 + OSI-027 (first compound 0.8 µM); 0.687 with QS11 + OSI-027 (first compound 2.53 µM); 0.732 in the experiment with QS11 + OSI-027 (first compound 8 µM); 0.556 with QS11 + Pemetrexed (first compound 0.08 µM). In addition, the relative viability with QS11 + Pemetrexed (first compound 0.253 µM) turned out to be 0.59; with QS11 + Pemetrexed (first compound 0.8 µM), 0.66; in the experiment with QS11 + Pemetrexed (first compound 2.53 µM) it was 0.822; with QS11 + Pemetrexed (first compound 8 µM), 0.735; with QS11 + Vorinostat (first compound 0.08 µM), 0.858; in the experiment with QS11 + Vorinostat (first compound 0.253 µM), 0.997. Further, the relative viability with QS11 + Vorinostat (first compound 0.8 µM) was 1.05; in the experiment with QS11 + Vorinostat (first compound 2.53 µM), 1.16; with QS11 + Vorinostat (first compound 8 µM) it was 1.41; with AZ628 + Pictilisib (first compound 0.08 µM), 0.554; with AZ628 + Pictilisib (first compound 0.253 µM) it was 0.473; with AZ628 + Pictilisib (first compound 0.8 µM) it was 0.482. Moreover, the relative viability in the experiment with AZ628 + Pictilisib (first compound 2.53 µM) turned out to be 0.469; with AZ628 + Pictilisib (first compound 8 µM) it was 0.412.

For the cell line LK-2, the relative viability with QS11 + OSI-027 (first compound 0.08 µM) is 0.181; in the experiment with QS11 + OSI-027 (first compound 0.253 µM), 0.238; with QS11 + OSI-027 (first compound 0.8 µM), 0.188; in the experiment with QS11 + OSI-027 (first compound 2.53 µM) it was 0.212; with QS11 + OSI-027 (first compound 8 µM), 0.22; with QS11 + Pemetrexed (first compound 0.08 µM), 0.241. The relative viability in the experiment with QS11 + Pemetrexed (first compound 0.253 µM) came out at 0.318; in the experiment with QS11 + Pemetrexed (first compound 0.8 µM), 0.267; with QS11 + Pemetrexed (first compound 2.53 µM) it was 0.27; in the experiment with QS11 + Pemetrexed (first compound 8 µM), 0.284; in the experiment with QS11 + Vorinostat (first compound 0.08 µM) it was 0.282; with QS11 + Vorinostat (first compound 0.253 µM), 0.27. Also, the relative viability in the experiment with QS11 + Vorinostat (first compound 0.8 µM) was found to be 0.467; with QS11 + Vorinostat (first compound 2.53 µM), 0.323; in the experiment with QS11 + Vorinostat (first compound 8 µM), 0.28; in the experiment with AZ628 + Pictilisib (first compound 0.08 µM) it was 0.577; with AZ628 + Pictilisib (first compound 0.253 µM), 0.824; in the experiment with AZ628 + Pictilisib (first compound 0.8 µM), 0.443. Further, the relative viability in the experiment with AZ628 + Pictilisib (first compound 2.53 µM) was 0.481; with AZ628 + Pictilisib (first compound 8 µM), 0.311.

Consider SK-MES-1, for which the relative viability with QS11 + OSI-027 (first compound 0.08 µM) came out at 0.627; with QS11 + OSI-027 (first compound 0.253 µM), 0.575; with QS11 + OSI-027 (first compound 0.8 µM), 0.544; in the experiment with QS11 + OSI-027 (first compound 2.53 µM), 0.615; with QS11 + OSI-027 (first compound 8 µM), 0.623; with QS11 + Pemetrexed (first compound 0.08 µM), 1.08. The relative viability in the experiment with QS11 + Pemetrexed (first compound 0.253 µM) worked out at 0.94; with QS11 + Pemetrexed (first compound 0.8 µM) it was 0.832; in the experiment with QS11 + Pemetrexed (first compound 2.53 µM), 0.977; with QS11 + Pemetrexed (first compound 8 µM) it was 0.863; in the experiment with QS11 + Vorinostat (first compound 0.08 µM), 1.25; with QS11 + Vorinostat (first compound 0.253 µM), 1.01. Moreover, the relative viability with QS11 + Vorinostat (first compound 0.8 µM) stood at 0.987; with QS11 + Vorinostat (first compound 2.53 µM) it was 1.23; in the experiment with QS11 + Vorinostat (first compound 8 µM), 1.08; in the experiment with AZ628 + Pictilisib (first compound 0.08 µM) it was 0.337; with AZ628 + Pictilisib (first compound 0.253 µM), 0.372; with AZ628 + Pictilisib (first compound 0.8 µM) it was 0.28. Besides, the relative viability with AZ628 + Pictilisib (first compound 2.53 µM) was 0.327; in the experiment with AZ628 + Pictilisib (first compound 8 µM) it was 0.329.

With NCI-H1299, the relative viability in the experiment with AZ628 + Pictilisib (first compound 0.08 µM) worked out at 0.643; with AZ628 + Pictilisib (first compound 0.253 µM), 0.464; with AZ628 + Pictilisib (first compound 0.8 µM) it was 0.306; in the experiment with AZ628 + Pictilisib (first compound 2.53 µM), 0.283; in the experiment with AZ628 + Pictilisib (first compound 8 µM), 0.167.
